From ChEMBL document CHEMBL1126389, “Synthesis and anti-HIV activity of 3-deoxy-3-(N-hydroxyamino) analogues of nucleosides” (Bioorg Med Chem Lett, 1992)
Calls of active or inactive are those of the source. The rule behind the calls is not given here.

Legend:
oncovirus = assay: Compound was evaluated for the antiviral activity against model oncovirus SV 40; A - Marginal activity was found; assay type: functional
[1] = test system: Human immunodeficiency virus 1; assay: Compound was evaluated for the inhibitory activity against HIV-1; IA - Inactive; assay type: functional, organism-based
[2] = test system: Human immunodeficiency virus 1; assay: Inhibitory concentration against HIV-1 was determined; assay type: functional, organism-based
[3] = test system: Human immunodeficiency virus 1; assay: Effective concentration against HIV-1 was determined; assay type: functional, organism-based

| Compound | Activity (oncovirus) | Activity [1] | IC50 [2] [nM] | EC50 [3] [nM] |
| --- | --- | --- | --- | --- |
| Cc1cn(C2CC(N(C)O)C(CO)O2)c(=O)[nH]c1=O (stereo unspecified) | A |  |  |  |
| Cc1cn([C@H]2C[C@](C#N)(N(C)O)[C@@H](CO[Si](C)(C)C(C)(C)C)O2)c(=O)[nH]c1=O | A |  |  |  |
| Cc1cn(C2CC(N(O)Cc3ccccc3)C(CO)O2)c(=O)[nH]c1=O (stereo unspecified) | A | inactive |  |  |
| Cc1cn(C2CC3C(COCN3O)O2)c(=O)[nH]c1=O (stereo unspecified) |  |  | > 210000 | 2500 |
